These results are taken from patent US20030170194A1, “Pharmaceutical and/or cosmetic composition containing an organosiloxane and a phospholipid” (priority 2000, published 2003).

The format of the data set is physicochemical. To be noted: composition of 10% by weight phospholipid and 90% by weight hexamethyldisiloxane.

With `Clc1ccccc1C(c1ccccc1)(c1ccccc1)n1ccnc1` [clotrimazole], the “dissolves in higher concentration than in hexamethyldisiloxane alone” value came to 10 fold.
